Experimental data: ChEMBL document CHEMBL1142160, “Overexpression and initial characterization of the chromosomal aminoglycoside 3'-O-phosphotransferase APH(3')-IIb from Pseudomonas aeruginosa” (2007)
Values after ≈ are worked out from the molar mass of the structure shown.

What was measured:
Type in all cases: functional
[1] = test system: Escherichia coli; experiment: Antibacterial activity against Escherichia coli BL21(DE3)
[2] = test system: Pseudomonas aeruginosa; experiment: Antibacterial activity against Pseudomonas aeruginosa ATCC 27853
[3] = test system: Escherichia coli; experiment: Antibacterial activity against Escherichia coli BL21(DE3) expressing Pseudomonas aeruginosa APH(3')-2b

NCC[C@H](O)C(=O)N[C@@H]1C[C@H](N)[C@@H](O[C@H]2O[C@H](CN)[C@@H](O)[C@H](O)[C@H]2O)[C@H](O)[C@H]1O[C@H]1O[C@H](CO)[C@@H](O)[C@H](N)[C@H]1O [AMIKACIN]
MIC [1]: 12 µg/mL (≈ 20.5 µM) | MIC [2]: 3 µg/mL (≈ 5.12 µM) | MIC [3]: 12 µg/mL (≈ 20.5 µM)

NC[C@@H]1O[C@H](O[C@H]2[C@@H](O)[C@H](O[C@@H]3[C@@H](O)[C@H](N)C[C@H](N)[C@H]3O[C@H]3O[C@H](CN)[C@@H](O)[C@H](O)[C@H]3N)O[C@@H]2CO)[C@H](N)[C@@H](O)[C@@H]1O [FRAMYCETIN]
MIC [1]: 12 µg/mL (≈ 19.5 µM) | MIC [2]: 128 µg/mL (≈ 208 µM) | MIC [3]: 96 µg/mL (≈ 156 µM)

NC[C@@H]1O[C@@H](O[C@H]2[C@H](O)[C@@H](O[C@H]3O[C@H](CO)[C@@H](O)[C@H](N)[C@H]3O)[C@H](N)C[C@@H]2N)[C@@H](O)[C@H](O)[C@H]1O [KANAMYCIN A]
MIC [1]: 12 µg/mL (≈ 24.8 µM) | MIC [2]: 256 µg/mL (≈ 528 µM) | MIC [3]: 768 µg/mL (≈ 1590 µM)

NC[C@H]1O[C@H](O[C@H]2[C@H](O)[C@@H](O)[C@H](N)C[C@@H]2N)[C@H](N)[C@@H](O)[C@@H]1O [NEAMINE]
MIC [1]: 96 µg/mL (≈ 298 µM) | MIC [2]: 512 µg/mL (≈ 1590 µM) | MIC [3]: 1540 µg/mL (≈ 4760 µM)

NC[C@H]1O[C@H](O[C@H]2[C@H](O[C@@H]3O[C@H](CO)[C@@H](O)[C@H]3O)[C@@H](O)[C@H](N)C[C@@H]2N)[C@H](N)[C@@H](O)[C@@H]1O [RIBOSTAMYCIN]
MIC [1]: 12 µg/mL (≈ 26.4 µM) | MIC [2]: 384 µg/mL (≈ 845 µM) | MIC [3]: 768 µg/mL (≈ 1690 µM)

NC[C@H]1O[C@H](O[C@H]2[C@H](O)[C@@H](O[C@H]3O[C@H](CO)[C@@H](O)[C@H](N)[C@H]3O)[C@H](N)C[C@@H]2N)[C@H](N)C[C@@H]1O [TOBRAMYCIN]
MIC [1]: 6 µg/mL (≈ 12.8 µM) | MIC [2]: 1 µg/mL (≈ 2.14 µM) | MIC [3]: 6 µg/mL (≈ 12.8 µM)
